From paper PMC4639830, “Inhibition of DYRK1A and GSK3B induces human β-cell proliferation” (Nature Communications, 2015) come the findings set out here.

In one data set the target is T1, GSK3beta (Homo sapiens, UniProt P49841).
T1 construct: purchased Ambit KINOMEscan
The data set is described as follows: Kinase profiling. It is filed as biochemical. The following applies: Conc 1000 nM; read-out: Percent inhibition, GSK3beta.

For data set [1], the system named is human islets transplanted into STZ-treated NOD-SCID mice. Description: Transplantation of compound-treated human islets into STZ-treated NOD-SCID mice. The following applies: islets treated in vitro before transplantation. It is filed as in vivo, mouse. The source says:
Figure 2 AP compounds expand human islets ex vivo with retention of function after transplantation. […] (a) Immunofluorescence for insulin, Ki67 and DAPI on DMSO or GNF4877-treated human intact islets (scale bar, 50 μm). (b) Quantification of Ki67+ as a percent of total insulin+ cells (n=3). […] Data are shown as mean±s.d. (six mice per group; transplanted with islets from a single human donor). […] Data shown as mean±s.d.; (n=6 mice/group, *P<0.05, Student's t-test).
We tested whether aminopyrazine treatment of islets compromised their ability to secrete insulin in vitro and, after transplantation, in vivo.

For the next data set, the system named is diabetic RIP-DTA mice. Description: RIP-DTA mouse model of T1D. It counts as in vivo. The following applies: 50 mg kg^−1 twice daily. The source says: All animal care and experimental procedures were approved by the Institutional Animal Care and Use Committee (IACUC) of Genomics Institute of the Novartis Research Foundation and strictly followed the NIH guidelines for humane treatment of animals. The double transgenic RIP-DTA male mice (Tg(Ins2-rtTA)2Efr Tg(teto-DTA)1Gfi/J; Jackson Laboratory, Stock # 008755) were bred in-house and were maintained in a 12-h light/12-dark cycle environment with controlled temperature, humidity and ventilation. Animals were housed 3–5 mice per cage and had free access to water and standard laboratory chow. To induce pancreatic β-cell ablation and hyperglycaemia, doxycycline (200 μg ml^−1, Sigma-Aldrich) was provided in the drinking water for 5 days. Blood glucose levels were measured from tail-vein blood with a glucometer (AlphaTrak2 Monitoring System; Abbott). Experimental groups of 14 male mice each were randomized based on similar body weights (28.8±2.4 g), age (82±2 days), and blood glucose levels (428±96 mg dl^−1). Group sizes of eight animals each are sufficient to reliably detect changes in glycaemic control and β-cell mass based on historical data with reference compounds; an additional six mice were added to each group to assess total pancreatic insulin levels. […] A sub-set of animals were not given doxycycline treatment and were used as a non-diabetic vehicle–control group. All compounds were administered daily via oral gavage (4 ml kg^−1). Body weight and blood glucose were monitored every third day. An oral glucose tolerance test was performed after an overnight fast on day 12. For the insulin tolerance test, mice were fasted for 4 h before the administration of insulin (Novolin, Novo Nordisk, 0.7 U kg^−1 body weight, i.p.). Pancreatic insulin content was determined by MSD (meso-scale discovery). […] To determine β-cell proliferation and β-cell mass by morphological analyses, pancreata from the rest of animals (n=8) were rapidly dissected, fixed in formalin, sectioned and immunostained for insulin, Ki67 and BrdU on day 16. Male NSG mice, aged 8 weeks, were obtained from the Jackson Laboratory (Strain NOD.Cg-Prkdc^scid Il2rg^tm1Wjl/SzJ; Stock number 005557) and housed according to IACUC guidelines. Baseline body weight and tail-vein blood glucose measurements were recorded before diabetic induction. To obtain a diabetic state, animals were given an intraperitoneal dose of STZ (135 mg kg^−1) and blood glucose was monitored before transplant. Mice were grouped according to body weight and blood glucose level on the day of transplants (72 h after STZ treatment).
Pancreas specimens were harvested, weighed, fixed in 10% neutral buffered formalin and processed using standard paraffin processing techniques. Five micrometre serial-step sections were mounted onto Superfrost Plus slides and air-dried overnight. Samples were coded before histologic analyses resulting in blinded processing and staining. Routine hematoxylin and eosin (H&E) stains were performed on all specimens. Immunostaining was performed using the Ventana Discovery XT system. All epitope retrieval was done on the instrument using CC1 reagent. Chromogenic insulin was detected using guinea pig anti-insulin (Dako Corp A0564) at 1:3,200 and the Blue Map kit, after serum blocking and endogenous biotin blocking was performed, slides were then counterstained with Nuclear Fast Red. Fluorescent insulin and Ki67 double stains used a cocktail of the Dako anti-insulin at 1:1,600 and rabbit monoclonal Ki67 (Thermo RM9106) at 1:100, and were detected using a cocktail of Alexa Fluor 488 and 594-labelled secondary antibodies. Auto-fluorescence was quenched in red blood cells and reduced in connective tissue by treatment with 10 mM copper sulfate. Slides were counterstained with DAPI. 21 slides were collected per block. All slides were imaged on the Hamamatsu Nanozoomer and evaluated for β-cell mass and proliferation. […]

The test system of data set [2] is human islets in STZ-treated NSG mice. The data set is described as follows: Human islets transplanted under kidney capsule of STZ-treated NSG mice, oral dosing. It is filed as in vivo, mouse. The following applies: 50 mg kg^−1, twice daily, 9 days. The text has this:
All animal care and experimental procedures were approved by the Institutional Animal Care and Use Committee (IACUC) of Genomics Institute of the Novartis Research Foundation and strictly followed the NIH guidelines for humane treatment of animals. The double transgenic RIP-DTA male mice (Tg(Ins2-rtTA)2Efr Tg(teto-DTA)1Gfi/J; Jackson Laboratory, Stock # 008755) were bred in-house and were maintained in a 12-h light/12-dark cycle environment with controlled temperature, humidity and ventilation. Animals were housed 3–5 mice per cage and had free access to water and standard laboratory chow. […] Blood glucose levels were measured from tail-vein blood with a glucometer (AlphaTrak2 Monitoring System; Abbott). […] Body weight and blood glucose were monitored every third day. […] Pancreatic insulin content was determined by MSD (meso-scale discovery). […] Baseline body weight and tail-vein blood glucose measurements were recorded before diabetic induction. To obtain a diabetic state, animals were given an intraperitoneal dose of STZ (135 mg kg^−1) and blood glucose was monitored before transplant. […]
Human islets (obtained commercially from Prodo Laboratories Inc.) were recovered for 48 h before transplantation. […] While mice were prepared, islets were counted according to IEQs and prepared into islet suspension of 800 IEQ/mouse in cold PBS. […]

In a further data set the test system is intact human islets. Description: Intact human islet assay (Ki67, cell numbers). It is filed as cell-based. The following applies: 8 days. As to the method:
Rat or human β-cell proliferation assays were performed using dissociated primary rat or human islets. Islets were treated with the indicated compounds in the presence of EdU for 4 days before fixing and staining. EdU incorporation was measured by click reaction with AlexaFluor-647-azide (Invitrogen). For intact islet assays, primary human islets were treated for 7 or 8 days (as indicated in the legend). Rat dissociated islets were cultured in RPMI medium containing 10% FBS and human dissociated islets were cultured in PIM-S media (Prodo laboratories) with 10% human […].

Another data set deals with primary human islets. The data set is described as follows: TUNEL in β-cells. It counts as cell-based. The following applies: 4 days in the presence of EdU. How it is done:
Supplementary Figure 2. […] (a-c) Primary human […]
for 4 days in the presence of EdU. […]
effects on TUNEL in EdU positive cells while CDK6 and Cyclin D1 increased TUNEL staining in EdU positive cells (consistent with previous reports) (n=3; mean ± SD). (d) Human islets were […]
for 16 hrs in the presence of EdU. Following treatment, cells were analyzed for TUNEL, and stained for insulin and DAPI.
TUNEL without EdU incorporation. […]
(1 picture or pasted object on this page, not shown here)

T1 sequence (P49841 whole entry): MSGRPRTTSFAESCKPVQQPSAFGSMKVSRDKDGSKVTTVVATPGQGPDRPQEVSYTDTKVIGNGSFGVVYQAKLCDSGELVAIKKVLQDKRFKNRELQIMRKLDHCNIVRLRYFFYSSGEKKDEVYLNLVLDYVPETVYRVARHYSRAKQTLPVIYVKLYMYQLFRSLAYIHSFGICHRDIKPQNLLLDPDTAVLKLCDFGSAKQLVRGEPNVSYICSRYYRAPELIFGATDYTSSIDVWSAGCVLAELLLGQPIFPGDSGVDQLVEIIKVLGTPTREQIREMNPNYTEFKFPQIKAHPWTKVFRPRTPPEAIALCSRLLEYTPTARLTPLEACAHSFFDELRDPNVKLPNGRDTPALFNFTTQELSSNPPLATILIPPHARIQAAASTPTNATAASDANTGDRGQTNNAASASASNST

In general, inhibition refers to how much of the control response was suppressed. For the molecule `Nc1ncc(-c2ccccc2)nc1C(=O)Nc1cnccc1N1CCC(C(=O)O)CC1` [GNF7156], the inhibition at 1 µM on GSK3beta is 99%. Moreover, the “euglycemia after transplantation of treated islets” value in data set [1] is given as “maintained the ability to preserve euglycemia”.

Regarding `CC(C)Oc1ccc(F)c(-c2cnc(N)c(C(=O)Nc3cnccc3N3CCC[C@@H](C(=O)O)C3)n2)c1` [GNF4877], in the data set on diabetic RIP-DTA mice (14 days of dosing), the “oral glucose tolerance vs vehicle” value is listed as “dramatically improved glucose tolerance”. Further, in the data set on diabetic RIP-DTA mice (oral), the “body weight, appearance or behaviour vs vehicle” value is recorded as “did not show any difference in body weight”; the “insulin tolerance vs vehicle” value is listed as “without a significant difference in insulin tolerance”; the “non-fasting blood glucose levels” value is listed as “progressive reduction of non-fasting blood glucose levels”. The “β-cell mass, increase vs vehicle-treated diabetic mice” value in the data set on diabetic RIP-DTA mice (oral, 14 days) is on record as approximately 1.5 fold. Also, the “insulin content, increase vs vehicle-treated diabetic mice” value with diabetic RIP-DTA mice (oral, whole pancreas lysate, 15 days) was “twofold”. The “glucose control (fed glucose levels)” value in data set [2] is on record as “trend towards improved glucose control”. In addition, the “increase in the number of Ki67-positive insulin-positive cells” value in the data set with intact human islets turned out to be 20 fold. Further, the “TUNEL-positive β-cells” value with primary human islets was “unchanged”.
